# Data taken from publication PMC8651387, “Synthesis and Evaluation of the Acetylcholinesterase Inhibitory Activities of Some Flavonoids Derived from Naringenin” (The Scientific World Journal, 2021).
# “And” between values parts separate entries of the source, which are not always exact repeats. Equal entries are not always repeated. Where two headings read alike, the source gives them in different places.
# Experiments:
# AChE = AChE (Homo sapiens, UniProt P22303); experiment: biochemical; details: for IC50: pH 8, 25°C, triplicate
# Chain of AChE (P22303 32-614): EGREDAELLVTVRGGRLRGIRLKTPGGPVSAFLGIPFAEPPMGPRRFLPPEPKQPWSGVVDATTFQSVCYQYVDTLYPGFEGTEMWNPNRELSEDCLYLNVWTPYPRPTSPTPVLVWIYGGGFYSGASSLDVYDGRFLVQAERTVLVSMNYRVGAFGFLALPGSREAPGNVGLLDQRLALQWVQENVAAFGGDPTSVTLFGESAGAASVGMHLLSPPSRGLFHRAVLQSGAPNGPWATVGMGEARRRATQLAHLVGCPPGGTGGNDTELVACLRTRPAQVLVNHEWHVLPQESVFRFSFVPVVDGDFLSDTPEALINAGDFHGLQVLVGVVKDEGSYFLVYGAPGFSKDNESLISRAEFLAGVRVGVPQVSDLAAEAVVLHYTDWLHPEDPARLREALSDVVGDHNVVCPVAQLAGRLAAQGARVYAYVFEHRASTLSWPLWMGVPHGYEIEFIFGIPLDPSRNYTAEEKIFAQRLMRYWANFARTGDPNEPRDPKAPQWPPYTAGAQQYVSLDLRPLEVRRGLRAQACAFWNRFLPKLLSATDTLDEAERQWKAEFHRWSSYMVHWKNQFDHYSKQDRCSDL
# [1] = Solubility in water and solvents (compound description)
# [2] = AChE 0.25 UI/mL, read-out: IC50
SMILES,AChE inhibitory activity (in words) (AChE),IC50 (AChE; [2]),Solubility in acetone [1],Solubility in dichloromethane [1],Solubility in methanol [1],Solubility in water [1],"IC50 (AChE; IC50, AChE 0.25 UI/mL)"
"C=CCOc1ccc(C2CC(=O)c3c(O)cc(OCC=C)cc3O2)cc1 (stereo not drawn) [Compound 6, 4′,7-Diallyloxy-5-hydroxyflavanone]",negligible biological effects,> 100 µM,soluble,highly soluble,sparingly soluble,insoluble,–
"O=C(/C=C/c1ccc(OCc2ccccc2)cc1)c1c(OCc2ccccc2)cc(OCc2ccccc2)cc1OCc1ccccc1 [Compound 9, (E)-2′,4,4′,6′-Tetrabenzyloxychalcone]",negligible biological effects,> 100 µM,soluble,highly soluble,slightly soluble,insoluble,–
"COc1ccc(C2CC(=O)c3c(O)cc(OC)cc3O2)cc1 (stereo not drawn) [Compound 2, 5-Hydroxy-4′,7-dimethoxyflavanone]",improved activities over naringenin,< 100 µM and 75 µM,soluble,highly soluble,sparingly soluble,insoluble,–
"C=CCOc1ccc(/C=C/C(=O)c2c(O)cc(OCC=C)cc2OCC=C)cc1 [Compound 7, (E)-2′,4,4′-Triallyloxy-6′-hydroxychalcone]",improved activities over naringenin,< 100 µM and 13 µM,soluble,highly soluble,sparingly soluble,insoluble,–
"COc1cc(O)c2c(c1)OC(c1ccc(O)cc1)CC2=O (stereo not drawn) [Compound 1, 4′,5-Dihydroxy-7-methoxyflavanone]",–,–,–,–,–,–,> 100 µM
"O=C(/C=C/c1ccc(OCc2ccccc2)cc1)c1c(O)cc(OCc2ccccc2)cc1OCc1ccccc1 [Compound 8, (E)-2′,4,4′-Tribenzyloxy-6′-hydroxychalcone]",–,> 100 µM,soluble,soluble,insoluble,insoluble,–
"COc1ccc(/C=C/C(=O)c2c(OC)cc(OC)cc2OC)cc1 [Compound 3, (E)-2′,4,4′,6′-Tetramethoxychalcone]",–,–,soluble,highly soluble,sparingly soluble,insoluble,> 100 µM
"CCOc1ccc(/C=C/C(=O)c2c(O)cc(OCC)cc2OCC)cc1 [Compound 4, (E)-2′,4,4′-Triethoxy-6′-hydroxychalcone]",improved activities over naringenin,< 100 µM and 39.8 µM,soluble,highly soluble,slightly soluble,insoluble,–
"C=CCOc1cc(O)c2c(c1)OC(c1ccc(O)cc1)CC2=O (stereo not drawn) [Compound 5, 7-Allyloxy-4′,5-dihydroxyflavanone]",improved activities over naringenin,< 100 µM and 48.4 µM,highly soluble,sparingly soluble,sparingly soluble,insoluble,–
O=C1C[C@@H](c2ccc(O)cc2)Oc2cc(O)cc(O)c21 [Naringenin],–,–,–,–,–,–,150 ± 4.6 µM
